Experimental data from patent publication US10336707B2, “Heterocyclic derivatives modulating activity of certain protein kinases” (EUDENDRON S.R.L., priority 2014, dated 2019).

Target: T1, EPHB2 (Homo sapiens, UniProt P29323)
T1 construct: either as full-length or enzymatically active fragments; purchased ProQinase GmbH (Freiburg, Germany)
T1 sequence (P29323 19-1055): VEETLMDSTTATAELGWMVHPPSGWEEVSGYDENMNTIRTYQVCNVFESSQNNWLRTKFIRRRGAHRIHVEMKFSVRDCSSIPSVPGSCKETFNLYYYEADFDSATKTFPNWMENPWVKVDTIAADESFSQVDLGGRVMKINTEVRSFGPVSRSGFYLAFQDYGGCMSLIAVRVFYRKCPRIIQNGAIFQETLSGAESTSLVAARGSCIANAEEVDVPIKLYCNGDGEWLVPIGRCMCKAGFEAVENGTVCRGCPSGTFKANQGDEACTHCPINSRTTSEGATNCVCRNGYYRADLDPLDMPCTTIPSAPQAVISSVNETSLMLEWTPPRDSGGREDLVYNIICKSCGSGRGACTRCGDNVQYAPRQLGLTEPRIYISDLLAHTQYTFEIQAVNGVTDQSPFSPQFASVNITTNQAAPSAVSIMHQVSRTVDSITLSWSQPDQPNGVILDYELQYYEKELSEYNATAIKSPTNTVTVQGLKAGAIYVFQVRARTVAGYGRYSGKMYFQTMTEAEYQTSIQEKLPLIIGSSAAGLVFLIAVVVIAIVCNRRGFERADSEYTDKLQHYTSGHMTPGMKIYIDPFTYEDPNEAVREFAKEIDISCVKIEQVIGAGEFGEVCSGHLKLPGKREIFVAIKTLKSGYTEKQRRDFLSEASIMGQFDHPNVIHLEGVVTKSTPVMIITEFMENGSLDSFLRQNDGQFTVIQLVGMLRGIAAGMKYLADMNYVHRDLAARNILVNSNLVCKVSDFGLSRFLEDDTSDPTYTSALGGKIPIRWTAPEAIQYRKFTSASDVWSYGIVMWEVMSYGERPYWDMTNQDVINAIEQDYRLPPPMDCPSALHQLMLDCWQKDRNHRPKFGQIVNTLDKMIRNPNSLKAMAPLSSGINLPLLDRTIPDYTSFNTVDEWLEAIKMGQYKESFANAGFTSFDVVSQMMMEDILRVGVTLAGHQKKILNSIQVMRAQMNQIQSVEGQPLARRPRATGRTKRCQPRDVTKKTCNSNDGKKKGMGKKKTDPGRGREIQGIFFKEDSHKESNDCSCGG
Assay: Radiometric protein kinase assay (33PanQuinase Activity Assay), EPHB2
Type: biochemical
Conditions: ATP 0.3 μM
Protocol: A proprietary radiometric protein kinase assay (33PanQuinase® Activity Assay) developed by ProQuinase GmbH (Freiburg, Germany) was used for measuring the kinase activity of selected protein kinases. All assays were performed in FlashPlates™ wells 96 Perkin Elmer (Boston, Mass., USA) in a reaction volume of 50 μl. The reaction mixture was obtained in 4 steps in the following order: • 1. 10 μl of a solution of non-radioactive ATP in water; • 2. 25 μl of assay buffer/[γ-^33P]-ATP mixture • 3. 5 μl of test sample in 10% DMSO • 4. 10 μl of enzyme/substrate mixture
All protein kinases provided by ProQinase were expressed in Sf9 insect cells or in E. coli as recombinant GST-fusion proteins or His-tagged proteins, either as full-length or enzymatically active fragments. […] Kinases from external vendors (CAR=Carna Biosciences Inc.; INV=Life Technologies (Invitrogen Corporation); MIL=Merck-Millipore (Millipore Corporation), were expressed, purified and quality-controlled by virtue of the vendors readings.
A stock solution of compound of formula (I) was diluted to 5×10-04M/100% DMSO. […] Incorporation of 33Pi (counting of “cpm”) was determined with a microplate scintillation counter (Microbeta, Wallac). […]
Based on each 10 corresponding residual activities, IC50 values were calculated using Prism 5.04 for Windows (Graphpad, San Diego, Calif.). […]

## CN1CCN(c2ccc(C(=O)Nc3n[nH]c4cc(-c5ccc(O)cc5)c(Cc5cc(F)cc(F)c5)cc34)c(NC3CCOCC3)c2)CC1 [Example 3, N-[5-[(3,5-difluorophenyl)methyl]-6-(4-hydroxyphenyl)-1H-indazol-3-yl]-4-(4-methylpiperazin-1-yl)-2-(tetrahydropyran-4-ylamino)benzamide]
  IC50: 90 nM
